# Measurements as given in patent EP1171107B1, “USE OF A PHARMACEUTICAL COMPOSITION IN THE MANUFACTURE OF A MEDICAMENT FOR THE TREATMENT OF PATHOLOGICAL CONDITIONS OF THE EYE CAUSED BY BACTERIA, VIRUSES, FUNGI, YEASTS AND PROTOZOA” (Dr. GERHARD MANN chem.-pharm. Fabrik GmbH, priority 1999, dated 2000).
# Key:
# Assay type in all cases: cell-based
# H.influenzae [1] = assay: Quantitative germ count (re-isolation, surface method) after inoculating the test preparation; details: Ausgangskeimzahl 2,8 x 10^5 KBE/ml
# Source text: (§1) Escherichia (E.coli) Staphylococcus (S.aureus) Streptococcus (Sc.) Pneumoniae Pseudomonas (P.aeruginosa) Staphylococcus (S. epidermidis) Haemophilus (H. influenzae)
# (§2) Die verschiedenen Testkeime wurde jeweils aus einem Lyophilisat in NaCl-Peptonpuffer homogenisiert und auf Caseinpepton-Sojymehlpepton. (Caso-) Agar (Fa. bioMérieux; Art. Nr. 43019) bez. Kochblut-Agar (Fa. bioMérieux; Art. Nr. 43109) subkultiviert. Die Teststämme wurden vor Versuchsbeginn durch Erstellen eines biochemischen Profils mittels ATB/Vitek-System (Fa. bioMérieux, Nürtingen) auf Reinheit und Identität überprüft.
# (§3) Die Ausgangskeimzahl wurde im Oberflächenverfahren mit Hilfe eines Spiralplaters (Fa. Meintrup, Lähden) ermittelt und ist im einzelnen den Tabellen 1-12 zu entnehmen.
# (§4) Die verschiedenen Testsubstanzen a. bis j. wurden jeweils zu 5 ml in sterile Zentrifugenröhrchen abgefüllt und mit ca. 10^5 KBE^*/ml (* = koloniebildende Einheiten) der oben genannten Testkeime kontaminiert. Pro Substanz wurde für jeden Testkeim und jede zu prüfende Testzeit ein separater Ansatz angeimpft, d.h.10 Testsubstanzen zu jeweils 7 Testzeiten und 6 Testkeime (= insgesamt 502 Testansätze). […] Der Überstand wurde dekantiert und das Pellet in 5 ml NaCl Peptonpuffer aufgenommen und resuspendiert. Die Suspension wurde erneut 10 Minuten bei 3000 rpm abzentrifugiert und 5 ml NaCl-Peptonpuffer aufgenommen und mittels Vortex homogenisiert.
# (§5) Die anschließende Keimzahlbestimmung erfolgte im Oberflächenverfahren durch Ausspiralisieren eines […] Aliquots auf Caso-Agar bzw. für H. influenzae auf Kochblut-Agar. Die Platten wurden bei 33±2°C für max. 4 Tage bebrütet. Die Nachweisgrenze des Verfahrens liegt bei 100 KBE/ml.
# E.coli [2] = assay: as above; details: Ausgangskeimzahl 2,7 x 10^5 KBE/ml
# Source text: as §1, §2, §3, §4, §5
# S.aureus = assay: as above; details: Ausgangskeimzahl 2,6 x 10^5 KBE/ml
# Source text: as §1, §2, §3, §4, §5
# Sc. pneumoniae [3] = assay: as above; details: Ausgangskeimzahl 3,7 x 10^5 KBE/ml
# Source text: as §1, §2, §3, §4, §5
# H.influenzae [4] = assay: Qualitative examination: enrichment of the inoculated test preparation in broth
# Source text: as §1, §2
# (§6) Die verschiedenen Testsubstanzen a. bis j. wurden jeweils zu 5 ml in sterile Zentrifugenröhrchen abgefüllt und mit ca. 10^5 KBE^*/ml (* = koloniebildende Einheiten) der oben genannten Testkeime kontaminiert. Pro Substanz wurde für jeden Testkeim und jede zu prüfende Testzeit ein separater Ansatz angeimpft, d.h.10 Testsubstanzen zu jeweils 7 Testzeiten und 6 Testkeime (= insgesamt 502 Testansätze). Nach 2, 6, 8, 24, 32, 48 und 72 Stunden wurde dann der jeweilige Testansatz 10 Minuten bei 3000 rpm abzentrifugiert. Der Überstand wurde dekantiert und das Pellet in 5 ml NaCl Peptonpuffer aufgenommen und resuspendiert. Die Suspension wurde erneut 10 Minuten bei 3000 rpm abzentrifugiert und 5 ml NaCl-Peptonpuffer aufgenommen und mittels Vortex homogenisiert.
# (§7) Jeweils 2 ml der Testansätze wurden in 20 ml Caso-Bouillon oder für H. influenzae, in Fildes-Medium der Firma Becton Dickinson, ARt. Nr. 0349-739, angereichert und ebenfalls maximal 4 Tage bei 33± 2°C bebrütet. Ein negatives Ergebnis der Anreicherung belegt die Elimination der inokulierten Keime.
# P.aeruginosa [5] = assay: as above
# Source text: as §1, §2, §6, §7
# S.epidermidis [6] = assay: Quantitative germ count (re-isolation, surface method) after inoculating the test preparation; details: Ausgangskeimzahl 2,1 x 10^5 KBE/ml
# Source text: as §1, §2, §3, §6, §5
# P.aeruginosa [7] = assay: as above; details: Ausgangskeimzahl 2,7 x 10^5 KBE/ml
# Source text: as §1, §2, §3, §6, §5
# S.epidermidis [8] = assay: Qualitative examination: enrichment of the inoculated test preparation in broth
# Source text: as §1, §2, §4, §7
# E.coli [9] = assay: as above
# Source text: as §1, §2, §4, §7
# Sc. pneumoniae [10] = assay: as above
# Source text: as §1, §2, §4, §7
smiles,measurement,setting,value
"CC1COc2c(N3CCN(C)CC3)c(F)cc3c(=O)c(C(=O)O)cn1c23 (stereo not shown) [Ofloxacin 0,3 Gew.-%, Ofloxacin, reference compound]",Ergebnis der Reisolierung (in KBE/ml),H.influenzae [1]; 2 h after inoculation,<100 KBE/ml
same,Ergebnis der Reisolierung (in KBE/ml),H.influenzae [1]; 4 h after inoculation,<100 KBE/ml
same,Ergebnis der Reisolierung (in KBE/ml),H.influenzae [1]; 6 h after inoculation,<100 KBE/ml
same,Ergebnis der Reisolierung (in KBE/ml),H.influenzae [1]; 8 h after inoculation,<100 KBE/ml
same,Ergebnis der Reisolierung (in KBE/ml),H.influenzae [1]; 24 h after inoculation,<100 KBE/ml
same,Ergebnis der Reisolierung (in KBE/ml),H.influenzae [1]; 32 h after inoculation,<100 KBE/ml
same,Ergebnis der Reisolierung (in KBE/ml),H.influenzae [1]; 48 h after inoculation,<100 KBE/ml
same,Ergebnis der Reisolierung (in KBE/ml),H.influenzae [1]; 72 h after inoculation,<100 KBE/ml
same,Ergebnis der Reisolierung (in KBE/ml),E.coli [2]; 2 h after inoculation,<100 KBE/ml
same,Ergebnis der Reisolierung (in KBE/ml),E.coli [2]; 4 h after inoculation,<100 KBE/ml
same,Ergebnis der Reisolierung (in KBE/ml),E.coli [2]; 6 h after inoculation,<100 KBE/ml
same,Ergebnis der Reisolierung (in KBE/ml),E.coli [2]; 8 h after inoculation,<100 KBE/ml
same,Ergebnis der Reisolierung (in KBE/ml),E.coli [2]; 24 h after inoculation,<100 KBE/ml
same,Ergebnis der Reisolierung (in KBE/ml),E.coli [2]; 32 h after inoculation,<100 KBE/ml
same,Ergebnis der Reisolierung (in KBE/ml),E.coli [2]; 48 h after inoculation,<100 KBE/ml
same,Ergebnis der Reisolierung (in KBE/ml),E.coli [2]; 72 h after inoculation,<100 KBE/ml
same,Ergebnis der Reisolierung (in KBE/ml),S.aureus; 2 h after inoculation,<100 KBE/ml
same,Ergebnis der Reisolierung (in KBE/ml),S.aureus; 4 h after inoculation,<100 KBE/ml
same,Ergebnis der Reisolierung (in KBE/ml),S.aureus; 6 h after inoculation,<100 KBE/ml
same,Ergebnis der Reisolierung (in KBE/ml),S.aureus; 8 h after inoculation,<100 KBE/ml
same,Ergebnis der Reisolierung (in KBE/ml),S.aureus; 24 h after inoculation,<100 KBE/ml
same,Ergebnis der Reisolierung (in KBE/ml),S.aureus; 32 h after inoculation,<100 KBE/ml
same,Ergebnis der Reisolierung (in KBE/ml),S.aureus; 48 h after inoculation,<100 KBE/ml
same,Ergebnis der Reisolierung (in KBE/ml),S.aureus; 72 h after inoculation,<100 KBE/ml
same,Ergebnis der Reisolierung (in KBE/ml),Sc. pneumoniae [3]; 2 h after inoculation,<100 KBE/ml
same,Ergebnis der Reisolierung (in KBE/ml),Sc. pneumoniae [3]; 4 h after inoculation,<100 KBE/ml
same,Ergebnis der Reisolierung (in KBE/ml),Sc. pneumoniae [3]; 6 h after inoculation,<100 KBE/ml
same,Ergebnis der Reisolierung (in KBE/ml),Sc. pneumoniae [3]; 8 h after inoculation,<100 KBE/ml
same,Ergebnis der Reisolierung (in KBE/ml),Sc. pneumoniae [3]; 24 h after inoculation,<100 KBE/ml
same,Ergebnis der Reisolierung (in KBE/ml),Sc. pneumoniae [3]; 32 h after inoculation,<100 KBE/ml
same,Ergebnis der Reisolierung (in KBE/ml),Sc. pneumoniae [3]; 48 h after inoculation,<100 KBE/ml
same,Ergebnis der Reisolierung (in KBE/ml),Sc. pneumoniae [3]; 72 h after inoculation,<100 KBE/ml
same,Ergebnis der Reisolierung qualitiativ (+/-) nach Anreicherung,H.influenzae [4]; 2 h after inoculation,-
same,Ergebnis der Reisolierung qualitiativ (+/-) nach Anreicherung,H.influenzae [4]; 4 h after inoculation,-
same,Ergebnis der Reisolierung qualitiativ (+/-) nach Anreicherung,H.influenzae [4]; 6 h after inoculation,-
same,Ergebnis der Reisolierung qualitiativ (+/-) nach Anreicherung,H.influenzae [4]; 8 h after inoculation,-
same,Ergebnis der Reisolierung qualitiativ (+/-) nach Anreicherung,H.influenzae [4]; 24 h after inoculation,-
same,Ergebnis der Reisolierung qualitiativ (+/-) nach Anreicherung,H.influenzae [4]; 32 h after inoculation,-
same,Ergebnis der Reisolierung qualitiativ (+/-) nach Anreicherung,H.influenzae [4]; 48 h after inoculation,-
same,Ergebnis der Reisolierung qualitiativ (+/-) nach Anreicherung,H.influenzae [4]; 72 h after inoculation,-
same,Ergebnis der Reisolierung qualitiativ (+/-) nach Anreicherung,P.aeruginosa [5]; 2 h after inoculation,-
same,Ergebnis der Reisolierung qualitiativ (+/-) nach Anreicherung,P.aeruginosa [5]; 4 h after inoculation,+
same,Ergebnis der Reisolierung qualitiativ (+/-) nach Anreicherung,P.aeruginosa [5]; 6 h after inoculation,-
same,Ergebnis der Reisolierung qualitiativ (+/-) nach Anreicherung,P.aeruginosa [5]; 8 h after inoculation,-
same,Ergebnis der Reisolierung qualitiativ (+/-) nach Anreicherung,P.aeruginosa [5]; 24 h after inoculation,-
same,Ergebnis der Reisolierung qualitiativ (+/-) nach Anreicherung,P.aeruginosa [5]; 32 h after inoculation,-
same,Ergebnis der Reisolierung qualitiativ (+/-) nach Anreicherung,P.aeruginosa [5]; 48 h after inoculation,-
same,Ergebnis der Reisolierung qualitiativ (+/-) nach Anreicherung,P.aeruginosa [5]; 72 h after inoculation,-
same,Ergebnis der Reisolierung (in KBE/ml),S.epidermidis [6]; 2 h after inoculation,<100 KBE/ml
same,Ergebnis der Reisolierung (in KBE/ml),S.epidermidis [6]; 4 h after inoculation,<100 KBE/ml
same,Ergebnis der Reisolierung (in KBE/ml),S.epidermidis [6]; 6 h after inoculation,<100 KBE/ml
same,Ergebnis der Reisolierung (in KBE/ml),S.epidermidis [6]; 8 h after inoculation,<100 KBE/ml
same,Ergebnis der Reisolierung (in KBE/ml),S.epidermidis [6]; 24 h after inoculation,<100 KBE/ml
same,Ergebnis der Reisolierung (in KBE/ml),S.epidermidis [6]; 32 h after inoculation,<100 KBE/ml
same,Ergebnis der Reisolierung (in KBE/ml),S.epidermidis [6]; 48 h after inoculation,<100 KBE/ml
same,Ergebnis der Reisolierung (in KBE/ml),S.epidermidis [6]; 72 h after inoculation,<100 KBE/ml
same,Ergebnis der Reisolierung (in KBE/ml),P.aeruginosa [7]; 2 h after inoculation,<100 KBE/ml
same,Ergebnis der Reisolierung (in KBE/ml),P.aeruginosa [7]; 4 h after inoculation,<100 KBE/ml
same,Ergebnis der Reisolierung (in KBE/ml),P.aeruginosa [7]; 6 h after inoculation,<100 KBE/ml
same,Ergebnis der Reisolierung (in KBE/ml),P.aeruginosa [7]; 8 h after inoculation,<100 KBE/ml
same,Ergebnis der Reisolierung (in KBE/ml),P.aeruginosa [7]; 24 h after inoculation,<100 KBE/ml
same,Ergebnis der Reisolierung (in KBE/ml),P.aeruginosa [7]; 32 h after inoculation,<100 KBE/ml
same,Ergebnis der Reisolierung (in KBE/ml),P.aeruginosa [7]; 48 h after inoculation,<100 KBE/ml
same,Ergebnis der Reisolierung (in KBE/ml),P.aeruginosa [7]; 72 h after inoculation,<100 KBE/ml
same,Ergebnis der Reisolierung qualitiativ (+/-) nach Anreicherung,S.epidermidis [8]; 2 h after inoculation,+
same,Ergebnis der Reisolierung qualitiativ (+/-) nach Anreicherung,S.epidermidis [8]; 4 h after inoculation,+
same,Ergebnis der Reisolierung qualitiativ (+/-) nach Anreicherung,S.epidermidis [8]; 6 h after inoculation,+
same,Ergebnis der Reisolierung qualitiativ (+/-) nach Anreicherung,S.epidermidis [8]; 8 h after inoculation,-
same,Ergebnis der Reisolierung qualitiativ (+/-) nach Anreicherung,S.epidermidis [8]; 24 h after inoculation,-
same,Ergebnis der Reisolierung qualitiativ (+/-) nach Anreicherung,S.epidermidis [8]; 32 h after inoculation,-
same,Ergebnis der Reisolierung qualitiativ (+/-) nach Anreicherung,S.epidermidis [8]; 48 h after inoculation,-
same,Ergebnis der Reisolierung qualitiativ (+/-) nach Anreicherung,S.epidermidis [8]; 72 h after inoculation,-
same,Ergebnis der Reisolierung qualitiativ (+/-) nach Anreicherung,E.coli [9]; 2 h after inoculation,-
same,Ergebnis der Reisolierung qualitiativ (+/-) nach Anreicherung,E.coli [9]; 4 h after inoculation,-
same,Ergebnis der Reisolierung qualitiativ (+/-) nach Anreicherung,E.coli [9]; 6 h after inoculation,-
same,Ergebnis der Reisolierung qualitiativ (+/-) nach Anreicherung,E.coli [9]; 8 h after inoculation,-
same,Ergebnis der Reisolierung qualitiativ (+/-) nach Anreicherung,E.coli [9]; 24 h after inoculation,-
same,Ergebnis der Reisolierung qualitiativ (+/-) nach Anreicherung,E.coli [9]; 32 h after inoculation,-
same,Ergebnis der Reisolierung qualitiativ (+/-) nach Anreicherung,E.coli [9]; 48 h after inoculation,-
same,Ergebnis der Reisolierung qualitiativ (+/-) nach Anreicherung,E.coli [9]; 72 h after inoculation,-
same,Ergebnis der Reisolierung qualitiativ (+/-) nach Anreicherung,Sc. pneumoniae [10]; 2 h after inoculation,-
same,Ergebnis der Reisolierung qualitiativ (+/-) nach Anreicherung,Sc. pneumoniae [10]; 4 h after inoculation,+
same,Ergebnis der Reisolierung qualitiativ (+/-) nach Anreicherung,Sc. pneumoniae [10]; 6 h after inoculation,-
same,Ergebnis der Reisolierung qualitiativ (+/-) nach Anreicherung,Sc. pneumoniae [10]; 8 h after inoculation,-
same,Ergebnis der Reisolierung qualitiativ (+/-) nach Anreicherung,Sc. pneumoniae [10]; 24 h after inoculation,-
same,Ergebnis der Reisolierung qualitiativ (+/-) nach Anreicherung,Sc. pneumoniae [10]; 32 h after inoculation,-
same,Ergebnis der Reisolierung qualitiativ (+/-) nach Anreicherung,Sc. pneumoniae [10]; 48 h after inoculation,-
same,Ergebnis der Reisolierung qualitiativ (+/-) nach Anreicherung,Sc. pneumoniae [10]; 72 h after inoculation,-
